Five compounds from patent publication US6228853A, “Pyrrolopyrrolone derivatives as inhibitors of neutrophil elastase” (Glaxo Wellcome Inc., priority 1997, dated 2001) can be followed below.

Structures can show the parent of a compound that is named as a salt.

Test [1] deals with T1, human neutrophil elastase (Homo sapiens, UniProt P08246).
T1 sequence (P08246 30-267): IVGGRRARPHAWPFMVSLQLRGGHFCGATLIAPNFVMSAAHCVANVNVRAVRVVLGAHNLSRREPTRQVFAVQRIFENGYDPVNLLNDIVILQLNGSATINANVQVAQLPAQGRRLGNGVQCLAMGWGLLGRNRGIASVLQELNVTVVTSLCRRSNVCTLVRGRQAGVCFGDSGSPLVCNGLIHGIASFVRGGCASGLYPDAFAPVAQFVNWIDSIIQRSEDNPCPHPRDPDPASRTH
The experiment in a line: In vitro assay of human neutrophil elastase. It counts as biochemical. The settings on record: in vitro elastase test; purified human neutrophil elastase 11.8 nM, pH 8.6, 15 min at 30° C., 0.6 mM MeO-succinyl-alanyl-alanyl-prolyl-valyl-p-nitroanilide. On the procedure: In vitro assays of human neutrophil elastase Assay contents: 50 mM Tris/HCl (pH 8.6) 150 mM NaCl 11.8 nM purified human neutrophil elastase Suitable concentrations of compound under test diluted with water from a 10 mM stock solution in dimethylsulphoxide. Values above are final concentrations after the addition of substrate solution (see below). The mixture above is incubated for fifteen minutes at 30° C. at which time the remaining elastase activity is measured for 10 minutes in a BioTek 340i plate-reader, after the addition of 0.6 mM MeO-succinyl-alanyl-alanyl-prolyl-valyl-p-nitroanilide. The rate of increase in absorbance at 405 nm is proportional to elastase activity. Enzyme activity is plotted against concentration of inhibitor and an IC50 determined using curve fitting software.

For test [2], the target named is T2, elastase (Homo sapiens, UniProt P08246).
T2 construct: fresh, heparinised human whole blood; endogenous in cells; host or cells: leukocytes (neutrophils) of fresh heparinised human whole blood
T2 sequence (P08246 30-267): T1 sequence (P08246 30-267)
The experiment in a line: Human whole blood elastase inhibition assay. It counts as cell-based. The settings on record: heparinised, 30 minutes at 37° C. On the procedure: Human whole blood elastase inhibition assay
Triplicate aliquots of fresh, heparinised human whole blood (200 μl) are added to appropriately diluted samples (10 μl) of compounds under test. […] Samples are mixed thoroughly by pipette, and are then incubated for 30 minutes at 37° C. Cold red cell lysis buffer (750 μl of 155 mM ammonium chloride, 0.12 mM EDTA, 10 mM potassium bicarbonate, pH 7.4) is then added. Tubes are capped, inverted several times, and maintained at 4° C. for 15 minutes, inverting every 5 minutes. After centrifugation at 250 g for 10 minutes, at 4° C., the resulting pelleted cells are washed. The wash is with saline (300 μl), followed by centrifugation at 100 g for 10 minutes at 4° C. Pellets are washed twice more, before resuspension of the final cell pellet in buffer (200 μl of 100 mM Tris, 300 mM NaCl, 1% (w/v) HTAB, pH 8.6). Samples are stored at -20° C. After freeze-thawing of the samples four times, elastase activity is determined by a calorimetric assay in 50 mM Tris, 150 mM NaCl, 0.6 mM MeO-Succ-Ala-Ala-Ala-Pro-Val-pNA at pH 8.6, measuring the rate of increase in absorbance at 405 nm.

For test [3], the system named is intracellular elastase. The experiment in a line: Oral in vivo hamster model using IL-8 induced lung infiltrates for assessment of intracellular elastase inhibition. The settings on record: in vivo hamster IL-8 test, at a dose of less than 10 mg/kg. On the procedure: In vivo activity of inhibitors of human neutrophil elastase:
An oral in vivo model using IL-8 induced lung infiltrates for the assessment of intracellular elastase inhibition
Adult hamsters (100-150 g) are randomised into groups (n=4) and fasted overnight. Under gaseous anaesthetic (3% isofluorane) animals are dosed orally with 1 mL/100 g water as vehicle or containing predissolved compounds. Either at the same time, or subsequently under anaesthetic, animals are dosed intratracheally with 1 ug recombinant human IL-8 in 100 uL sterile saline. Six hours after IL-8 dosing animals are sacrificed using intraperitoneal pentobarbitone. The lungs are lavaged with 2×2.5 mL sterile saline and femurs are removed by dissection.
Intracellular elastase is prepared from neutrophils collected by lavage and from femoral bone marrow. This is achieved by sonication of the neutrophils and centrifugation to yield intracellular granules. These are disrupted by freeze/thawing and sonication. Elastase and myeloperoxidase assays are then performed on these samples to assess the efficacy of the compounds and to normalise for neutrophil recovery.

Take `CC(C)[C@H]1C(=O)N(S(C)(=O)=O)[C@H]2CCN(C(=O)C3CN(CC4CC4)C3)[C@H]12` (relative stereo) [Example 1, rel-(3R,3aR,6aS)-4-(1-CyclopropyImethyl-azetidine-3carbonyl)-3-isopropyl-1-methanesulfonyl-hexahydropyrrolo[3,2-b]pyrrol-2-one hydrochloride]: the values for the IC50 in test [1] and in test [2] were 194 nM and 5400 nM, respectively.
On to `CC(C)[C@H]1C(=O)N(S(C)(=O)=O)[C@H]2CCN(C(=O)C3CN(Cc4ccccc4)C3)[C@H]12` (relative stereo) [Example 2, rel-(3R,3aR,6aS)-4-(1-Benzylazetidine-3-carbonyl)-3-isopropyl-1-methanesulfonyl-hexahydro-pyrrolo[3,2-b]pyrrol-2-one hydrochloride], for which the values for the 50% inhibitory concentration (IC50) in test [1] and in test [2] were 229 nM and 810 nM, respectively.
Regarding `CC(C)[C@H]1C(=O)N(S(C)(=O)=O)[C@H]2CCN(C(=O)C3CN(CC(C)(C)C)C3)[C@H]12.Cl` (relative stereo) [Example 3, rel-(3R,3aR,6aS)-4-[1-(2,2-Dimethyl-propyl)-azetidine-3-carbonyl]-3-isopropyl-1-methanesulfonyl-hexahydro-pyrrolo[3,2-b]pyrrol-2-one hydrochloride], in test [3], the duration of action entry is recorded as “at least 6 hours”.
With `CC(C)[C@H]1C(=O)N(S(C)(=O)=O)[C@H]2CCN(C(=O)C3CN(Cc4c(Cl)cccc4Cl)C3)[C@H]12` (relative stereo) [Example 4, rel-(3R,3aR,6aS)-4-[1-(2,6-Dichloro-benzyl)-azetidine-3-carbonyl]-3-isopropyl-1-methanesulfonyl-hexahydropyrrolo[3,2-b]pyrrol-2-one hydrochloride], the figures for the half-maximal inhibitory concentration (IC50) in test [1] and in test [2] were 210 nM and 1200 nM, respectively.
For `CCCCN1CC(C(=O)N2CC[C@H]3[C@H]2[C@@H](C(C)C)C(=O)N3S(C)(=O)=O)C1` (relative stereo) [Example 5, rel-(3R,3aR,6aS)-4-(1-Butyazetidine-3-carbonyl)-3-isopropyl-1-methanesulfonyl-hexahydro-pyrrolo[3,2-b]pyrrol-2-one hydrochloride] the same measures were 93 nM and 1700 nM.

What is called IC50 is the concentration that gives 50% inhibition. Read a high IC50 as lower potency.
